Among the data in PubChem BioAssay (NCI) are TGI and GI50 values, retold here.

Some test systems named below: DU-145 prostate; HCT-15 colon; HL-60(TB) leukemia; MOLT-4 leukemia; NCI-H226 lung; OVCAR-8 ovarian; SK-MEL-5 melanoma; SNB-75 CNS; UACC-62 melanoma; NCI/ADR-RES ovarian.
Common to all, as to test: NCI tumour cell line growth inhibition, 48 h

Several values for one entry are separate records, joined by “and”; a condition that tells them apart may be missing. Equal values may be shown once.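 Exposure lasted 48 hours, with cells grown in 96-well plates and compounds tested at five concentrations. At the GI50, growth is halved. At the TGI there is no net growth.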

In the case of `O=S(=O)(NC1CCCCC1)c1ccc2c(c1)OCCOCCOCCOCCO2`, the TGI with DU-145 prostate, in the assay on HCT-15 colon, with HL-60(TB) leukemia, in the assay on MOLT-4 leukemia, in the assay on NCI-H226 lung and in the assay with OVCAR-8 ovarian was over 100 µM in each case. Besides, the TGI in the assay with SK-MEL-5 melanoma, in the assay on SNB-75 CNS and in the assay with UACC-62 melanoma was over 100 µM each time.

For `Cc1ccc(/C=C/c2c(C(=O)/C=C/c3ccccc3)c(C)nc3ccccc23)cc1`, the GI50 was 1.65 µM in the assay on DU-145 prostate; 1.32 µM with HCT-15 colon; 2.04 µM with HL-60(TB) leukemia; 0.708 µM in the assay with MOLT-4 leukemia; 1.69 µM in the assay with NCI-H226 lung; 2.24 µM with NCI/ADR-RES ovarian. Further, the figures for the GI50 in the assay with OVCAR-8 ovarian, in the assay on SK-MEL-5 melanoma and with UACC-62 melanoma were 1.83 µM, 1.71 µM and 1.58 µM, respectively. Besides, the TGI in the assay on DU-145 prostate came out at 3.15 µM; in the assay on HCT-15 colon, 3.24 µM; in the assay with HL-60(TB) leukemia it was 4.89 µM; with MOLT-4 leukemia it was 4.29 µM; in the assay with NCI-H226 lung, 3.46 µM; with NCI/ADR-RES ovarian, 5.85 µM. Moreover, the TGI with OVCAR-8 ovarian came out at 5.46 µM; with SK-MEL-5 melanoma it was 3.11 µM; with UACC-62 melanoma, 3.16 µM.

For `COc1ccc2c(c1)/C(=C\c1ccncc1)C(=O)N2`, the GI50 was 14.2 µM in the assay on DU-145 prostate; 2.97 µM in the assay with HCT-15 colon; 6.8 µM with HL-60(TB) leukemia; 12.3 µM with NCI/ADR-RES ovarian; 10.3 µM with OVCAR-8 ovarian; 13.1 µM in the assay with SK-MEL-5 melanoma. Also, the GI50 in the assay on UACC-62 melanoma was 4.46 µM. Further, the TGI with DU-145 prostate was 34.3 µM; with HCT-15 colon, 13.1 µM; with HL-60(TB) leukemia, over 100 µM; in the assay with NCI/ADR-RES ovarian, 67.1 µM; in the assay on OVCAR-8 ovarian it was 32.7 µM; in the assay with SK-MEL-5 melanoma it was 27.6 µM. The TGI in the assay on UACC-62 melanoma was 17.2 µM.

For `C#C[C@]1(O)CC[C@H]2[C@@H]3CC=C4c5sc(Nc6cc(F)ccc6F)nc5CC[C@]4(C)[C@H]3CC[C@@]21C`, the GI50 in the assay on DU-145 prostate is 1.63 µM; in the assay with HCT-15 colon it was 1.53 µM; in the assay with HL-60(TB) leukemia, 2.54 µM; in the assay on MOLT-4 leukemia, 0.416 µM; with NCI/ADR-RES ovarian, 2.79 µM; with OVCAR-8 ovarian it was 2.63 µM. Besides, the figures for the GI50 in the assay with SK-MEL-5 melanoma, with SNB-75 CNS and in the assay with UACC-62 melanoma were 1.74 µM, 0.736 µM and 1.74 µM, respectively. Besides, the TGI was determined as 3.44 µM in the assay with DU-145 prostate; 4.84 µM in the assay on HCT-15 colon; 7.96 µM with HL-60(TB) leukemia; 10.2 µM in the assay on MOLT-4 leukemia; 13.8 µM with NCI/ADR-RES ovarian; 12.1 µM in the assay on OVCAR-8 ovarian. The values for the TGI in the assay with SK-MEL-5 melanoma, in the assay on SNB-75 CNS and in the assay on UACC-62 melanoma were 3.16 µM, 2.18 µM and 3.75 µM, respectively.

With `O=C(O)C[C@H](O)C[C@H](O)/C=C/c1c(C2CC2)nc2ccccc2c1-c1ccc(F)cc1`, the GI50 was > 100 µM and 31 µM in the assay on DU-145 prostate; 6.16 µM and 0.616 µM in the assay on HCT-15 colon; 4.55 µM and 25.6 µM in the assay on HL-60(TB) leukemia; > 100 µM and 54.5 µM in the assay with MOLT-4 leukemia; 11.7 µM and 2.22 µM with NCI-H226 lung; 2.82 µM and 0.86 µM with NCI/ADR-RES ovarian. For the same molecule, the GI50 in the assay with OVCAR-8 ovarian was 7.63 µM and 2.17 µM; in the assay with SK-MEL-5 melanoma it was 12.8 µM and 1.32 µM; in the assay on UACC-62 melanoma it was 2.3 µM and 0.45 µM. The TGI is over 100 µM with DU-145 prostate; over 100 µM in the assay on HCT-15 colon; over 100 µM with HL-60(TB) leukemia; over 100 µM in the assay on MOLT-4 leukemia; 51.6 µM and 8.01 µM with NCI-H226 lung; over 100 µM with NCI/ADR-RES ovarian. In addition, the TGI in the assay with OVCAR-8 ovarian was over 100 µM; with SK-MEL-5 melanoma, 31.1 µM and 3.56 µM; with UACC-62 melanoma, over 100 µM.

For the molecule `COc1ccccc1N=Nc1c(-c2ccccc2)nn(C(=O)CC(=O)Nc2cccc(C)c2)c1-c1ccccc1`, the TGI was over 100 µM in the assay with HCT-15 colon; 38 µM in the assay on HL-60(TB) leukemia; 50.6 µM with MOLT-4 leukemia; over 100 µM with NCI-H226 lung; over 100 µM in the assay with OVCAR-8 ovarian; 97.8 µM in the assay on SK-MEL-5 melanoma. The results for the TGI in the assay with SNB-75 CNS and in the assay on UACC-62 melanoma were 93.5 µM and over 100 µM, respectively.

For `COC(=O)CCC(NC(=S)N/N=C(\C)c1ccc[nH]1)C(=O)OC` (stereo unspecified), the TGI in the assay with HCT-15 colon, with HL-60(TB) leukemia, in the assay on MOLT-4 leukemia, with NCI-H226 lung, in the assay on OVCAR-8 ovarian and in the assay on SK-MEL-5 melanoma was over 100 µM in each case. In addition, the TGI with SNB-75 CNS and in the assay on UACC-62 melanoma was over 100 µM each time.

As to `CNC(=O)NCC1OC(n2cnc3c(NC(=O)Nc4ccccc4)ncnc32)C(O[Si](C)(C)C(C)(C)C)C1O[Si](C)(C)C(C)(C)C` (stereo unspecified), the GI50 is 2.58 µM with DU-145 prostate; 3.62 µM with HCT-15 colon; 3.1 µM with NCI-H226 lung; 3.72 µM with NCI/ADR-RES ovarian; 4.01 µM in the assay with OVCAR-8 ovarian; 1.98 µM in the assay on SK-MEL-5 melanoma. Besides, the GI50 in the assay on SNB-75 CNS was 2.43 µM; in the assay with UACC-62 melanoma, 3.98 µM. Further, the TGI was 5.71 µM in the assay with DU-145 prostate; over 100 µM in the assay on HCT-15 colon; 8.63 µM in the assay with NCI-H226 lung; 20.7 µM with NCI/ADR-RES ovarian; 40.1 µM with OVCAR-8 ovarian; 4.75 µM in the assay with SK-MEL-5 melanoma. Further, the TGI in the assay on SNB-75 CNS came to 34.1 µM; in the assay with UACC-62 melanoma, 23.6 µM.

For the molecule `CC(C)C1CO[C@]2(C)CCC(=O)N12` (stereo partly specified), the TGI in the assay with HCT-15 colon, with HL-60(TB) leukemia, with MOLT-4 leukemia, in the assay on NCI-H226 lung, in the assay with OVCAR-8 ovarian and with SK-MEL-5 melanoma was over 100 µM each time. For the same molecule, the TGI with SNB-75 CNS and in the assay with UACC-62 melanoma was over 100 µM throughout.

With `N#C/C(=C1\SCC(=O)N1c1ccccc1)c1nc2ccccc2[nH]1`, the TGI in the assay with HCT-15 colon, in the assay on HL-60(TB) leukemia, in the assay with MOLT-4 leukemia, in the assay with NCI-H226 lung, with OVCAR-8 ovarian and with SK-MEL-5 melanoma was over 100 µM throughout. The TGI with SNB-75 CNS and with UACC-62 melanoma was over 100 µM each time.

Turning to `O=C(Oc1cccc(Cl)c1)c1ccccc1Nc1ccnc(C(F)(F)F)c1`, the GI50 was 14.2 µM with DU-145 prostate; 12.8 µM with HL-60(TB) leukemia; 0.938 µM in the assay on MOLT-4 leukemia; 2.15 µM with NCI-H226 lung; 2.24 µM with NCI/ADR-RES ovarian; 3.52 µM in the assay on OVCAR-8 ovarian. For the same molecule, the GI50 with SK-MEL-5 melanoma is 2.59 µM; in the assay with UACC-62 melanoma, 2.02 µM. The TGI in the assay on DU-145 prostate was 27.6 µM; with HL-60(TB) leukemia, over 100 µM; in the assay with MOLT-4 leukemia it was over 100 µM; in the assay on NCI-H226 lung, 8.89 µM; with NCI/ADR-RES ovarian, 6.1 µM; with OVCAR-8 ovarian, 18.1 µM. In addition, the TGI stood at 6.73 µM with SK-MEL-5 melanoma and 6.71 µM in the assay with UACC-62 melanoma.
